Patent publication US20170000133A1, “BENZOXABOROLE FUNGICIDES” (SYNGENTA PARTICIPATIONS AG, priority 2013, published 2017)

These molecules were tested on Pythium ultimum (assay: Pythium ultimum / liquid culture (seedling damping off)). Details: Globisporangium ultimum; 200 ppm; potato dextrose broth, 24° C., 2-3 days after application; read-out: disease control (inhibition of growth determined photometrically).
Assay type: cell-based

| SMILES | inhibition at 200 ppm [%] |
| --- | --- |
| CSc1nc(NC(=O)c2cc3c(cc2F)COB3O)n[nH]1 [Compound 177] | ≥ 80 |
| Cc1cc(O)nc(NC(=O)c2cc3c(cc2F)COB3O)n1 [Compound 178] | ≥ 80 |
| Cc1onc(-c2ccccc2)c1NC(=O)c1cc2c(cc1F)COB2O [Compound 180] | ≥ 80 |
| O=C(OCC1CCCO1)c1cc2c(cc1Cl)COB2O (stereo not shown) [Compound 212] | ≥ 80 |
| Cn1cc(CCCOC(=O)c2cc3c(cc2Cl)COB3O)cn1 [Compound 219] | ≥ 80 |
| O=C(OCCCC(=O)N1CCCC1)c1cc2c(cc1Cl)COB2O [Compound 220] | ≥ 80 |
| O=C(OC1COC1)c1cc2c(cc1Cl)COB2O [Compound 234] | ≥ 80 |
| O=C(OC1CCOC1)c1cc2c(cc1Cl)COB2O (stereo not shown) [Compound 235] | ≥ 80 |
| COCCOCCOCCOC(=O)c1cc2c(cc1Cl)COB2O [Compound 239] | ≥ 80 |
| O=C(NCCC(F)(F)F)c1ccc2c(c1)B(O)OC2 [Compound 246] | ≥ 80 |
| O=C(NCC1(O)CCCCC1)c1ccc2c(c1)B(O)OC2 [Compound 247] | ≥ 80 |
| CCOC(=O)C1CC=CCC1NC(=O)c1ccc2c(c1)B(O)OC2 (stereo not shown) [Compound 248] | ≥ 80 |
| O=C(NCC(O)c1ccc(O)cc1)c1ccc2c(c1)B(O)OC2 (stereo not shown) [Compound 249] | ≥ 80 |
| C#CC1(NC(=O)c2ccc3c(c2)B(O)OC3)CCCCC1 [Compound 254] | ≥ 80 |
| O=C(NCCC1OCCO1)c1ccc2c(c1)B(O)OC2 [Compound 255] | ≥ 80 |
| O=C(NCC1CCCO1)c1ccc2c(c1)B(O)OC2 (stereo not shown) [Compound 256] | ≥ 80 |
| O=C(NCc1cccnc1)c1ccc2c(c1)B(O)OC2 [Compound 259] | ≥ 80 |
| CC(NC(=O)c1ccc2c(c1)B(O)OC2)c1ccccc1 (stereo not shown) [Compound 263] | ≥ 80 |
| O=C(NCc1ccc2c(c1)OCCO2)c1ccc2c(c1)B(O)OC2 [Compound 269] | ≥ 80 |
| O=C(NCc1ccc(-n2cccn2)cc1)c1ccc2c(c1)B(O)OC2 [Compound 272] | ≥ 80 |
| O=C(NCCc1c[nH]c2ccccc12)c1ccc2c(c1)B(O)OC2 [Compound 274] | ≥ 80 |
| O=C(NCc1ccccc1C(F)(F)F)c1ccc2c(c1)B(O)OC2 [Compound 275] | ≥ 80 |
| O=C(NCc1ccc(Cl)nc1)c1ccc2c(c1)B(O)OC2 [Compound 276] | ≥ 80 |

| SMILES | inhibition at 200 ppm [%] |
| --- | --- |
| O=C(NCCN1CCN(Cc2ccccc2)CC1)c1ccc2c(c1)B(O)OC2 [Compound 278] | ≥ 80 |
| Cc1cccc(Cl)c1NC(=O)c1ccc2c(c1)B(O)OC2 [Compound 281] | ≥ 80 |
| O=C(Nc1ccc(-n2cccc2)cc1)c1ccc2c(c1)B(O)OC2 [Compound 287] | ≥ 80 |
| COC(=O)c1cc2cc(NC(=O)c3ccc4c(c3)B(O)OC4)ccc2s1 [Compound 288] | ≥ 80 |
| O=C(Nc1ccccc1N1CCOCC1)c1ccc2c(c1)B(O)OC2 [Compound 293] | ≥ 80 |
| CN(C)S(=O)(=O)c1ccc(NC(=O)c2ccc3c(c2)B(O)OC3)cc1 [Compound 295] | ≥ 80 |
| O=C(Nc1ccc(S(=O)(=O)Nc2ccccn2)cc1)c1ccc2c(c1)B(O)OC2 [Compound 296] | ≥ 80 |
| Cc1cc(O)nc(NC(=O)c2ccc3c(c2)B(O)OC3)n1 [Compound 299] | ≥ 80 |
| O=C(Nc1ccc2ccccc2n1)c1ccc2c(c1)B(O)OC2 [Compound 300] | ≥ 80 |
| Cc1onc(-c2ccccc2)c1NC(=O)c1ccc2c(c1)B(O)OC2 [Compound 301] | ≥ 80 |
| O=C(Nc1cc(-c2ccccc2)[nH]n1)c1ccc2c(c1)B(O)OC2 [Compound 303] | ≥ 80 |
| Cc1nnc(NC(=O)c2ccc3c(c2)B(O)OC3)s1 [Compound 305] | ≥ 80 |
| Cc1cc(C)c2c(NC(=O)c3ccc4c(c3)B(O)OC4)[nH]nc2n1 [Compound 309] | ≥ 80 |
| CC(CN1CCOCC1)OC(=O)c1ccc2c(c1)B(O)OC2 (stereo not shown) [Compound 322] | ≥ 80 |
| O=C(OCCCC(=O)N1CCCC1)c1ccc2c(c1)B(O)OC2 [Compound 346] | ≥ 80 |
| CS(=O)(=O)CCOC(=O)c1ccc2c(c1)B(O)OC2 [Compound 358] | ≥ 80 |
| O=C(OC1COC1)c1ccc2c(c1)B(O)OC2 [Compound 363] | ≥ 80 |
| CC(CN1CCOCC1)OC(=O)c1cc2c(cc1F)COB2O (stereo not shown) [Compound 383] | ≥ 80 |
| O=C(OCCCC(=O)N1CCCC1)c1cc2c(cc1F)COB2O [Compound 408] | ≥ 80 |
| CS(=O)(=O)CCOC(=O)c1cc2c(cc1F)COB2O [Compound 421] | ≥ 80 |
| O=C(OC1CCOC1)c1cc2c(cc1F)COB2O (stereo not shown) [Compound 426] | ≥ 80 |
| O=C(OC1CCOCC1)c1cc2c(cc1F)COB2O [Compound 428] | ≥ 80 |
| COCCOCCOCCOC(=O)c1cc2c(cc1F)COB2O [Compound 432] | ≥ 80 |
